Experimental data: ChEMBL document CHEMBL4420078, “Sos1 inhibitors for cancer treatment” (2016)

Test system: BXPC-3
Experiment: Effect on total ERK protein levels in overnight serum-starved human BxPC3 cells at 40 to 60 uM by Western blotting analysis
Assay type: ADME, cell-based
Details: bxpc-3, 60 µM

`O=[N+]([O-])c1ccccc1/C=C/C=C1c2ccccc2-c2ccccc21` was tested, and the Activity was “Toxic”.
